In patent US8946436B2, “Oxazolidinone compounds and their uses in preparation of antibiotics” (Sichuan Gooddoctor Pharmaceutical Group Co., Ltd., priority 2011, dated 2015):
In brackets after ≈: the same amount, converted by molar mass. Where two headings read alike, the source gives them in different places.

What was measured:
L-02 = assay: Cytotoxicity experiment (MTT), L-02; type: cell-based; conditions: Homo sapiens, L02, 48 h, L-02 normal cells, read-out: Inhibition ratio
Method: (§1) (1) Inoculating cells: Experimental cells in the growth of logarithmic phase were collected and suspended. The cell concentration of the suspension was adjusted so that they could be inoculated into the wells of 96-well micro plate at a density between 10^3-10^4 cells per well (200 μl per well). (2) Culturing cells: The cells were cultured at normal conditions for 3 days and then exposed to 50 uM compounds for test. (3) Coloring reaction: At 24 h, 48 h and 72 h after the cells being exposed to the compounds for test, 200 μl culture medium containing 20 μl MTT solution (5 mg/ml) was added into each well, and the well was further incubated at 37° C. for 2 hours to terminate the incubation. After the incubation, the supernatants were removed from the wells. In the event there were suspended cells in the wells, centrifugation should be performed before removal of supernatant from the wells. After the removal, 150 μl DMSO was added to each well and mixed thoroughly by agitation for 10 mins to fully dissolve crystals. (4) Ascertainment of colorimetry: The absorbance value at 490 nm of each well was determined by Enzyme-linked immunosorbent Monitor. The growth curve of the experimental cells was plotted by taking time as x-coordinate and absorbance value as y-coordinate. In addition, an inhibition ratio could be calculated in accordance with the following formula: Inhibition ratio=(absorbance value of control group-absorbance value of administering group)/absorbance value of control group×100%.

E. faecalis = assay: In vitro antibacterial activity (MIC), E. faecalis; type: cell-based; conditions: Enterococcus faecalis
Method: (§2) The test strain was inoculated into the liquid medium and cultured at 37° C. for 16-18 h. The culture liquid and MH medium were put into two blank wells of a 96-well plate, respectively. Then, the absorptions thereof were measured by a Microplate reader. The difference between the absorption values of the culture liquid and MH medium is the adsorption of the bacteria. The concentration of the culture liquid can be calculated according to the formula of 1OD=50 million CFU/mL. The culture liquid was diluted with the MH bouillon culture medium to 5000 CFU/mL for further use.
(§3) Compounds 12a, 13 and 14 were dissolved in DMSO to 1 mg/mL, and then filtered with a 0.22 μm filter to obtain the compound solutions. And then they were gradually diluted to a desired concentration (10× final concentration) with the liquid medium, so as to obtain a series of dilutions. The final concentration grade of the dilutions of each tested compound consists of 14 concentrations, which includes: 0.03125 μg/mL, […], 0.125 μg/mL, 0.25 μg/mL, […], 1 μg/mL, 2 μg/mL, 4 μg/mL, 8 μg/mL, 16 μg/mL, 32 μg/mL, 64 μg/mL, 128 μg/mL and 256 μg/mL.
(§4) 10 μL of each of the compound dilutions above was added into a well of a 96-well plate. 90 μL of the culture liquid (5000 CFU/mL) was added into each of the wells, respectively, mixed with the dilutions to render the tested compound concentration to the final concentration. The resulted mixture was incubated at 37° C. for 16-18 h, and then the OD630 thereof was measured. A culture liquid free of the tested compounds is used as a blank control, and three parallel tests with the same concentration of each compound were performed. The minimum inhibitory concentration (MIC) of each compound on the standard strain of Staphylococcus Aureus and other test strains was determined. Specifically, among the culture liquid contained in the wells of the micro-plate, the first three lowest concentrations under which growth of the test strains could be observed were chose for further evaluation of the MIC. A culture liquid free of tested compounds was used as a blank control. Each of the culture liquids was homogenized independently, and then was diluted with a sterile saline. Each of the diluted culture liquids was plated onto a MH bouillon plate and incubated at 37° C. for 20 h in incubator. After the incubation, the number of the colonies on each plate was counted. As compared with the blank control group, the lowest concentration of each of the test compound groups, at which 80% reduction in the colony number of the strains was achieved, was recorded as the MIC.

S. pneumoniae = assay: In vitro antibacterial activity (MIC), S. pneumoniae; type: cell-based; conditions: Streptococcus pneumoniae
Method: as §2, §3, §4

S. aureus = assay: In vitro antibacterial activity (MIC), S. aureus; type: cell-based, Staphylococcus Aureus; conditions: Staphylococcus aureus
Method: Strains: strain ATCC25923 is available from the American Type Culture Collection, and is used as a standard strain of Staphylococcus Aureus;
Liquid medium: MH bouillon culture medium, a product of BD Company, United States of American;
Tested Compounds: compounds 12a, 13 and 14 prepared according to the methods above, and Linezolid purchased from Pfizer.
as §2, §3, §4

S. agalactiae = assay: In vitro antibacterial activity (MIC), S. agalactiae; type: cell-based; conditions: Streptococcus agalactiae
Method: as §2, §3, §4

HEK-293 = assay: Cytotoxicity experiment (MTT), HEK-293; type: cell-based; conditions: Homo sapiens, HEK293, 48 h, HEK-293 normal cells, read-out: Inhibition ratio
Method: as §1

[1] = E. faecalis (7 strains), read-out: MIC
[2] = S. pneumoniae (10 strains), read-out: MIC
[3] = S. aureus (12 strains), read-out: MIC
[4] = S. agalactiae (5 strains), read-out: MIC

For `CC(=O)NC[C@H]1CN(c2ccc(-n3nccc3-c3cccc(Br)n3)c(F)c2)C(=O)O1` [Compound 14b, (S)-N-((3-(3-fluoro-4-(5-(6-bromopyridin-2-yl)-1H-pyrazol-1-yl)phenyl)-2-oxooxazolidin-5-yl)methyl) acetamide], which melting point is on record?
The melting point was 90.5 to 92.3 °C.

And the cytotoxicity at 50 µM (L-02)?
The cytotoxicity at 50 µM was 21%.

And the MIC (E. faecalis; [1])?
The MIC was 4 to 32 µg/mL (≈ 8.43 to 67.5 µM).

What about the MIC (S. pneumoniae; [2]) of the same compound?
The MIC was 2 to 32 µg/mL (≈ 4.22 to 67.5 µM).

What about the MIC (S. aureus; [3]) of the same compound?
The MIC was 4 to 32 µg/mL (≈ 8.43 to 67.5 µM).

What about the MIC (S. agalactiae; [4]) of the same compound?
Its MIC is 4 to 32 µg/mL (≈ 8.43 to 67.5 µM).

What about the cytotoxicity at 50 µM (HEK-293) of the same compound?
The cytotoxicity at 50 µM was 19.5%.

Which results are given for `CC(=O)NC[C@H]1CN(c2ccc(-n3nccc3-c3ccc(C)cc3)c(F)c2)C(=O)O1` [Compound 14c, (S)-N-((3-(3-fluoro-4-(5-(p-tolyl)-1H-pyrazol-1-yl)phenyl)-2-oxooxazolidin-5-yl)methyl)acetamide]?
melting point: 89.5 to 91.9 °C; cytotoxicity at 50 µM (L-02): 39%; MIC (E. faecalis; [1]): 2 to 32 µg/mL (≈ 4.9 to 78.3 µM); MIC (S. pneumoniae; [2]): 2 to 16 µg/mL (≈ 4.9 to 39.2 µM); MIC (S. aureus; [3]): 4 to 32 µg/mL (≈ 9.79 to 78.3 µM); MIC (S. agalactiae; [4]): 2 to 32 µg/mL (≈ 4.9 to 78.3 µM); cytotoxicity at 50 µM (HEK-293): 40%

Which melting point does the source give for `CC(=O)NC[C@H]1CN(c2ccc(-n3nccc3-c3ccc(Br)cc3)c(F)c2)C(=O)O1` [Compound 14d, (S)-N-((3-(3-fluoro-4-(5-(4-bromophenyl)-1H-pyrazol-1-yl)phenyl)-2-oxooxazolidin-5-yl)methyl)acetamide] here?
Its melting point is 96.8 to 98.8 °C.

And the cytotoxicity at 50 µM (L-02)?
Its cytotoxicity at 50 µM is 39%.

And the MIC (E. faecalis)?
The MIC was 2 to 16 µg/mL (≈ 4.23 to 33.8 µM).

What about the MIC (S. pneumoniae) of the same compound?
Its MIC is 1 to 8 µg/mL (≈ 2.11 to 16.9 µM).

What about the MIC (S. aureus) of the same compound?
Its MIC is 2 to 16 µg/mL (≈ 4.23 to 33.8 µM).

And the MIC (S. agalactiae)?
Its MIC is 2 to 16 µg/mL (≈ 4.23 to 33.8 µM).

And the cytotoxicity at 50 µM (HEK-293)?
Its cytotoxicity at 50 µM is 55%.

Which melting point does the source give for `CC(=O)NC[C@H]1CN(c2ccc(-n3nccc3-c3ccccn3)c(F)c2)C(=O)O1` [Compound 14e, (S)-N-((3-(3-fluoro-4-(5-(pyridin-2-yl)-1H-pyrazol-1-yl)phenyl)-2-oxooxazolidin-5-yl)methyl)acetamide] here?
The melting point was 79.9 to 82.1 °C.

And the cytotoxicity at 50 µM (L-02)?
Its cytotoxicity at 50 µM is 39%.

What about the MIC (E. faecalis; [1]) of the same compound?
Its MIC is 0.25 to 16 µg/mL (≈ 0.632 to 40.5 µM).

And the MIC (S. pneumoniae; [2])?
The MIC was 0.125 to 16 µg/mL (≈ 0.316 to 40.5 µM).

What about the MIC (S. aureus; [3]) of the same compound?
Its MIC is 0.5 to 16 µg/mL (≈ 1.26 to 40.5 µM).

And the MIC (S. agalactiae; [4])?
The MIC was 0.25 to 16 µg/mL (≈ 0.632 to 40.5 µM).

What about the cytotoxicity at 50 µM (HEK-293) of the same compound?
Its cytotoxicity at 50 µM is 47%.

With `CSc1ccc(-c2ccnn2-c2ccc(N3C[C@H](CNC(C)=O)OC3=O)cc2F)cc1` [Compound 14f, (S)-N-((3-(3-fluoro-4-(5-(4-(methylthio)phenyl)-1H-pyrazol-1-yl)phenyl)-2-oxooxazolidin-5-yl)methyl) acetamide] as the compound, how does the melting point read?
Its melting point is 175.4 to 177.6 °C.

What about the cytotoxicity at 50 µM (L-02) of the same compound?
The cytotoxicity at 50 µM was 29%.

What about the MIC (E. faecalis; [1]) of the same compound?
Its MIC is 0.5 to 8 µg/mL (≈ 1.14 to 18.2 µM).

What about the MIC (S. pneumoniae; [2]) of the same compound?
Its MIC is 0.5 to 8 µg/mL (≈ 1.14 to 18.2 µM).

What about the MIC (S. aureus; [3]) of the same compound?
The MIC was 1 to 8 µg/mL (≈ 2.27 to 18.2 µM).

What about the MIC (S. agalactiae; [4]) of the same compound?
The MIC was 0.25 to 8 µg/mL (≈ 0.568 to 18.2 µM).

What about the cytotoxicity at 50 µM (HEK-293) of the same compound?
Its cytotoxicity at 50 µM is 40%.

What does the source list for `CC(=O)NC[C@H]1CN(c2ccc(-n3nccc3-c3ccc(Br)cn3)c(F)c2)C(=O)O1` [Compound 14g, (S)-N-((3-(3-fluoro-4-(5-(5-bromopyridin-2-yl)-1H-pyrazol-1-yl)phenyl)-2-oxooxazolidin-5-yl)methyl) acetamide]?
melting point: 92.7 to 95.4 °C; cytotoxicity at 50 µM (L-02): 5.9%; MIC (E. faecalis; [1]): 0.25 to 8 µg/mL (≈ 0.527 to 16.9 µM); MIC (S. pneumoniae; [2]): 0.5 to 8 µg/mL (≈ 1.05 to 16.9 µM); MIC (S. aureus; [3]): 1 to 8 µg/mL (≈ 2.11 to 16.9 µM); MIC (S. agalactiae; [4]): 0.5 to 8 µg/mL (≈ 1.05 to 16.9 µM); cytotoxicity at 50 µM (HEK-293): 10%

What does the source list for `CC(=O)NC[C@H]1CN(c2ccc(-n3nccc3-c3ccncc3)c(F)c2)C(=O)O1` [Compound 14h, (S)-N-((3-(3-fluoro-4-(5-(pyridin-4-yl)-1H-pyrazol-1-yl)phenyl)-2-oxooxazolidin-5-yl)methyl)acetamide]?
melting point: 74.5 to 76.3 °C; cytotoxicity at 50 µM (L-02): 14%; MIC (E. faecalis; [1]): 0.5 to 8 µg/mL (≈ 1.26 to 20.2 µM); MIC (S. pneumoniae; [2]): 0.25 to 4 µg/mL (≈ 0.632 to 10.1 µM); MIC (S. aureus; [3]): 1 to 4 µg/mL (≈ 2.53 to 10.1 µM); MIC (S. agalactiae; [4]): 0.5 to 8 µg/mL (≈ 1.26 to 20.2 µM); cytotoxicity at 50 µM (HEK-293): 5%
